Measurements: paper PMC7351726, “Design, synthesis, structure, in vitro cytotoxic activity evaluation and docking studies on target enzyme GSK-3β of new indirubin-3ʹ-oxime derivatives” (Scientific Reports, 2020)

How the values were obtained:
Format in all cases: cell-based
[1] = test system: HepG2 cells; test: In vitro cytotoxicity, SRB cell viability assay, HepG2; details: Homo sapiens, 48 h, mean ± SD, triplicate
Method: (§1) For Hepatocarcinoma (HepG2), human lung carcinoma (LU-1), human colorectal adenocarcinoma (SW480) and human normal embryonic kidney (HEK-293) cell lines, the culture medium was Dulbecco’s Modified Eagle’s Medium (DMEM) (Hyclone, USA). The medium supplementation included 10% fetal bovine serum (Hyclone), 100 units/ml penicillin, and 100 μg/ml streptomycin at 37 °C in an atmosphere with 5% CO2 and 95% humidity. For the human leukemia (HL-60) cell line, the maintenance was performed in RPMI-1640 medium (Life Technologies, Inc.) supplemented with 10% heat-inactivated fetal bovine serum (Hyclone) and 100 units/ml penicillin, and 100 μg/ml streptomycin.
(§2) Cell viability assay was conducted using SRB method for HepG2, LU-1, SW480 and HEK-293 cell lines, based on the measurement of protein content. Cells were plated with 180 μl growth medium into 96-microwell plates (4 × 10^4 cells per well) and allowed to grow overnight. Test compounds at various concentrations including 20 μM; 4 μM; 0.8 μM; 0.16 μM with incubation medium were supplemented and cultivated for additional 48 h in the same conditions. Afterwards, the removal of the medium was performed and cold 20% (wt/vol) TCA was used to fix the cell monolayer attached to the wall for 1 h at 4 °C, followed by staining with 1X SRB staining solution at room temperature for 30 min and the removal of the residual dye via repeated washing with 1% (v/v) acetic acid. For OD determination at 515 nm, an ELISA Plate Reader (Bio-Rad) was utilized to analyze the protein-bound dye, which dissolved in 10 mM Tris base solution. […] The cell survival rate (SR) was calculated as SR = [(ODt − OD0)/(ODc − OD0)] × 100, where the subscript 0, t and c represent time-zero, […] and the DMSO control sample.

[2] = test system: HL-60 cells; test: In vitro cytotoxicity, MTT assay, HL-60; details: Homo sapiens; HL-60, MTT, 72 h, mean ± SD, triplicate
Method: as §1
For HL-60 cell line, 5 × 10^3 cells/well were seeded in 96-multiwell plate and cultured overnight. The test compounds were serially diluted to the wells with concentrations ranging at 20 μM; 4 μM; 0.8 μM and 0.16 μM then incubated for 72 h. Thereafter, each well was added with 10 μl of MTT (5 mg/ml in 1X PBS), followed by incubation for 3 h and centrifugation at 1,500 rpm for 10 min. The media were discarded then added 150 μl DMSO to each well. Optical density was measured using a microplate reader at 540 nm.

[3] = test system: HEK-293 cells; test: In vitro cytotoxicity, SRB cell viability assay, normal kidney HEK-293; details: Homo sapiens, HEK293, HEK-293 normal kidney cells, 48 h, mean ± SD, triplicate
Method: as §1, §2

[4] = test system: LU-1 cells; test: In vitro cytotoxicity, SRB cell viability assay, LU-1; details: Homo sapiens, Lu1; LU-1, SRB, 48 h, mean ± SD, triplicate
Method: as §1, §2

[5] = test system: SW480 cells; test: In vitro cytotoxicity, SRB cell viability assay, SW480; details: Homo sapiens, 48 h, mean ± SD, triplicate
Method: as §1, §2

With `CCOc1ccc(/C=C/C(=O)c2ccc(OCCn3cc(CN4C(=O)/C(=C5\Nc6ccccc6\C5=N/O)c5ccccc54)nn3)cc2O)cc1` [Compound 6h] the IC50 [1] was 14.2 ± 1.79 µM, the IC50 [2] was 6.5 ± 0.98 µM and the IC50 [3] was 9.74 ± 0.53 µM. It also gave an IC50 [4] of 8.74 ± 0.55 µM and an IC50 [5] of 14.1 ± 1.18 µM.

`CCCOc1cccc(/C=C/C(=O)c2ccc(OCCn3cc(CN4C(=O)/C(=C5\Nc6ccccc6\C5=N/O)c5ccccc54)nn3)cc2O)c1` [Compound 6k] was tested, and the IC50 [1] was 2.95 ± 0.19 µM, the IC50 [2] was 1.29 ± 0.14 µM and the IC50 [3] was 1.92 ± 0.17 µM. For the same compound, the IC50 [4] was 2.5 ± 0.34 µM and the IC50 [5] was 2.91 ± 0.13 µM.

Compound `CCOc1ccccc1/C=C/C(=O)c1ccc(OCCn2cc(CN3C(=O)/C(=C4\Nc5ccccc5\C4=N/O)c4ccccc43)nn2)cc1O` [Compound 6f] has an IC50 [1] of 2.01 ± 0.43 µM, an IC50 [2] of 0.98 ± 0.12 µM and an IC50 [3] of 1.03 ± 0.11 µM. For the same compound, the IC50 [4] was 1.3 ± 0.14 µM and the IC50 [5] was 2.54 ± 0.25 µM.

With `O=C1Nc2ccccc2C1=C1Nc2ccccc2C1=NO` [Compound 2, indirubin-3′-oxime, reference compound] the IC50 [1] was 16 ± 0.62 µM, the IC50 [2] was 16.5 ± 0.94 µM and the IC50 [3] was 14.2 ± 0.71 µM. For the same compound, the IC50 [4] was 16.4 ± 1.05 µM and the IC50 [5] was 15.7 ± 0.74 µM.

Work on `O=C(/C=C/c1ccccc1)c1ccc(OCCn2cc(CN3C(=O)/C(=C4\Nc5ccccc5\C4=N/O)c4ccccc43)nn2)cc1O` [Compound 6a] yielded an IC50 [1] of 3.56 ± 0.75 µM, an IC50 [2] of 2.39 ± 0.46 µM and an IC50 [3] of 3.21 ± 0.43 µM. It also gave an IC50 [4] of 2.26 ± 0.32 µM and an IC50 [5] of 3.36 ± 0.64 µM.

Compound `COc1ccc(/C=C/C(=O)c2ccc(OCCn3cc(CN4C(=O)/C(=C5\Nc6ccccc6\C5=N/O)c5ccccc54)nn3)cc2O)cc1` [Compound 6e] has an IC50 [1] of 4.62 ± 1.07 µM, an IC50 [2] of 3.27 ± 0.37 µM and an IC50 [3] of 6.98 ± 0.25 µM. The IC50 [4] was 3.28 ± 0.48 µM and the IC50 [5] was 4.66 ± 0.92 µM.

In the case of `COc1cccc(/C=C/C(=O)c2ccc(OCCn3cc(CN4C(=O)/C(=C5\Nc6ccccc6\C5=N/O)c5ccccc54)nn3)cc2O)c1` [Compound 6d], the IC50 [1] is reported as 3.76 ± 0.75 µM, the IC50 [2] is reported as 3.4 ± 0.76 µM and the IC50 [3] is reported as 2.01 ± 0.64 µM. For the same compound, the IC50 [4] was 2.85 ± 0.74 µM and the IC50 [5] was 4.46 ± 1.18 µM.

For `O=C1Nc2ccccc2/C1=C1/Nc2ccccc2C1=O` [Compound 1, indirubin], the IC50 [1] was > 20 µM, the IC50 [2] was > 20 µM and the IC50 [3] was > 20 µM. The IC50 [4] was > 20 µM and the IC50 [5] was > 20 µM.

With `CN(C)CCn1cc(CN2C(=O)/C(=C3\Nc4ccccc4\C3=N/O)c3ccccc32)nn1` [Compound 6m] the IC50 [1] was 15.3 ± 0.17 µM, the IC50 [2] was 16 ± 0.38 µM and the IC50 [3] was 11.9 ± 1.75 µM. The IC50 [4] was 8.74 ± 1.06 µM and the IC50 [5] was 14.4 ± 0.72 µM.

With `CCCOc1ccccc1/C=C/C(=O)c1ccc(OCCn2cc(CN3C(=O)/C(=C4\Nc5ccccc5\C4=N/O)c4ccccc43)nn2)cc1O` [Compound 6i] the IC50 [1] was 2.28 ± 0.12 µM, the IC50 [2] was 1.28 ± 0.34 µM and the IC50 [3] was 0.85 ± 0.05 µM. It also gave an IC50 [4] of 2.07 ± 0.26 µM and an IC50 [5] of 3.43 ± 0.84 µM.

For `Cc1c2ccncc2c(C)c2c1[nH]c1ccccc12` [Ellipticine, reference compound], the IC50 [1] was 1.93 ± 0.54 µM, the IC50 [2] was 2.19 ± 1.12 µM and the IC50 [3] was 0.32 ± 0.03 µM. The IC50 [4] was 2.5 ± 0.82 µM and the IC50 [5] was 1.76 ± 0.63 µM.

`CCCOc1ccc(/C=C/C(=O)c2ccc(OCCn3cc(CN4C(=O)/C(=C5\Nc6ccccc6\C5=N/O)c5ccccc54)nn3)cc2O)cc1` [Compound 6l] gave an IC50 [1] of 3.28 ± 0.25 µM, an IC50 [2] of 1.28 ± 0.16 µM and an IC50 [3] of 7.12 ± 0.18 µM. The IC50 [4] was 2.07 ± 0.31 µM and the IC50 [5] was 3.03 ± 0.11 µM.

`C#CCN1C(=O)/C(=C2\Nc3ccccc3\C2=N/O)c2ccccc21` [Compound 4] was tested, and the IC50 [1] was > 20 µM, the IC50 [2] was 15.3 ± 0.35 µM and the IC50 [3] was 16.2 ± 0.33 µM. It also gave an IC50 [4] of 19.6 ± 1.23 µM and an IC50 [5] of 18.6 ± 0.91 µM.

In the case of `O=C1/C(=C2\Nc3ccccc3\C2=N/O)c2ccccc2N1Cc1cn(CCN2CCCCC2)nn1` [Compound 6n], the IC50 [1] is reported as 11.7 ± 0.23 µM, the IC50 [2] is reported as 10.4 ± 0.84 µM and the IC50 [3] is reported as 9.52 ± 0.07 µM. For the same compound, the IC50 [4] was 10.1 ± 0.44 µM and the IC50 [5] was 12.5 ± 0.53 µM.

`CCOc1cccc(/C=C/C(=O)c2ccc(OCCn3cc(CN4C(=O)/C(=C5\Nc6ccccc6\C5=N/O)c5ccccc54)nn3)cc2O)c1` [Compound 6g] was tested, and the IC50 [1] was 5.68 ± 0.71 µM, the IC50 [2] was 4.82 ± 0.46 µM and the IC50 [3] was 1.8 ± 0.21 µM. The IC50 [4] was 3.96 ± 0.62 µM and the IC50 [5] was 4.1 ± 0.57 µM.

`COc1ccccc1/C=C/C(=O)c1ccc(OCCn2cc(CN3C(=O)/C(=C4\Nc5ccccc5\C4=N/O)c4ccccc43)nn2)cc1O` [Compound 6c] showed an IC50 [1] of 3.38 ± 0.68 µM, an IC50 [2] of 1.43 ± 0.22 µM and an IC50 [3] of 1.19 ± 0.12 µM. The IC50 [4] was 2.99 ± 0.55 µM and the IC50 [5] was 3.8 ± 0.52 µM.

Work on `O=C1/C(=C2\Nc3ccccc3\C2=N/O)c2ccccc2N1Cc1cn(CCN2CCOCC2)nn1` [Compound 6p] yielded an IC50 [1] of 10.6 ± 0.79 µM, an IC50 [2] of 11.2 ± 1.04 µM and an IC50 [3] of 7.72 ± 0.42 µM. For the same compound, the IC50 [4] was 8.61 ± 0.57 µM and the IC50 [5] was 11.7 ± 0.48 µM.

With `COc1cc(/C=C/C(=O)c2ccc(OCCn3cc(CN4C(=O)/C(=C5\Nc6ccccc6\C5=N/O)c5ccccc54)nn3)cc2O)cc(OC)c1OC` [Compound 6b] the IC50 [1] was > 20 µM, the IC50 [2] was > 20 µM and the IC50 [3] was > 20 µM. The IC50 [4] was > 20 µM and the IC50 [5] was > 20 µM.

With `O=C1/C(=C2\Nc3ccccc3\C2=N/O)c2ccccc2N1Cc1cn(CCn2ccnc2)nn1` [Compound 6o] the IC50 [1] was 11.7 ± 0.26 µM, the IC50 [2] was 9.39 ± 0.45 µM and the IC50 [3] was 5.89 ± 0.75 µM. It also gave an IC50 [4] of 8.8 ± 0.38 µM and an IC50 [5] of 11.2 ± 0.76 µM.

For `C#CCN1C(=O)/C(=C2\Nc3ccccc3C2=O)c2ccccc21` [Compound 3], the IC50 [1] was > 20 µM, the IC50 [2] was > 20 µM and the IC50 [3] was > 20 µM. For the same compound, the IC50 [4] was > 20 µM and the IC50 [5] was > 20 µM.
